Experimental data as given in publication PMC11853379, “Glioblastoma Cell Migration, Invasion and Vasculogenic Mimicry Downmodulated by Novel uPAcyclin Derivatives” (Cells, 2025).
Read-outs that look alike come from different tables or passages of the source. Positions of bridges follow the written chain, without caps; N, C: chain ends. Residues, ends and D or L forms follow the SMILES beside them.

Columns and labels:
Assay type in all cases: cell-based, human
U87-MG cells [1] = experiment: Cell viability / proliferation, Trypan blue exclusion, U87-MG; conditions: DMEM/10% FBS, 100 nM peptide, 24, 48 and 72 h
Protocol: (§1) Cell viability was tested in DMEM/10% FBS in the presence of 100 nM uPAcyclin or Ala peptides via a Trypan blue exclusion assay, as previously reported, using 4 × 10^4 U87-MG and U251-MG glioblastoma cells/sample followed for 24, 48 and 72 h.
(§2) To rule out the possibility that the effects of uPAcyclin and Ala peptides could be due to the inhibition of cell proliferation, cell growth in the presence of these peptides was monitored for 24, 48 and 72 h (Supporting Information, Figure S2). U87-MG and U251-MG cells were exposed to diluents or to serum in the presence of 100 nM uPAcyclin, [Ala^1]uPAcyclin, [Ala^4]uPAcyclin, [Ala^8]uPAcyclin and [Ala^2,Ala^5]uPAcyclin (for the peptide choice, see above), and cell viability was tested at the indicated times using Trypan blue (Figure S2A,B). Both cell lines proliferate in culture in the presence of serum (DMEM/10% FBS), but not in a serum-free medium (DMEM). The growth rates of the U87-MG and U251-MG glioblastoma cell lines were similar, regardless of the exposure to 100 nM of uPAcyclin, [Ala^1]uPAcyclin, [Ala^4]uPAcyclin and [Ala^8]uPAcyclin.
(§3) Figure S5. Cell Viability Assay.
(§4) Unaffected proliferation of U87-MG and U251-MG glioblastoma cells exposed to uPacyclin and selected Ala-peptides. 2x104 U87-MG (A) or U251-MG (B) were seeded in 12 well plates for 24 h in DMEM-10% FBS and serum-starved for 24 h. Then, cells were counted (0 h) and grown in DMEM (no serum) or DMEM-10% FBS, in the presence of 100 nM peptides for 24, 48 and 72 h. Histograms represent the average of two separate experiments undertaken in duplicate.
(§5) (1 picture or pasted object on this page, not shown here)

U251-MG cells [2] = experiment: Vasculogenic mimicry (tube formation) assay, U251-MG on Geltrex; conditions: 24 h
Protocol: (§6) The tube formation assay was performed as previously described by Franco et al., using 3 × 10^4 U87-MG and 1.5 × 10^4 U251 cells/sample in the absence or presence of specific effectors included at time 0. The evaluation of vascular-like structures, as the branching points number, was performed using the Inverted Microscope DMI Leica 6000 ([…], Milan, Italy) and assessed in 4/5 random fields using the ImageJ 1.52a Software.
(§7) Here, U87-MG cells were plated onto Geltrex^TM, and the formation of round vascular-type structures was assessed after 24 h (Figure 6A). […] If cells are pretreated with nanomolar concentrations of the indicated cyclic peptides for 40 min at 37 °C prior to the VM assay, the number of intersections decreases. For this assay, the peptides [Ala^2, Ala^5]uPAcyclin, [Ala^1]uPAcyclin [Ala^4]uPAcyclin and [Ala^8]uPAcyclin, in addition to the parent uPAcyclin, were selected based on previous considerations. In the histogram shown in Figure 6B, the number of intersections per field is reported for untreated or peptide-exposed samples. As a reference, the uPAcyclin is indeed able to reduce vessel formation by 40% at 1 nM and by 70% at 100 nM. […] [Ala^2,Ala^5]uPAcyclin and [Ala^8]uPAcyclin are able to reduce VM by 50% at 1 nM and by 70% at 100 nM, confirming that they are both efficient inhibitors of GBM functions supporting malignancy. The formation of VM was also monitored in U251-MG cells, which were seeded under the same conditions employed for U87-MG cells. Representative images, reported in Figure 7A, show the elongated structures obtained after 24 h in Geltrex^TM matrix and their reduction in the cells pre-exposed to uPAcyclin, [Ala^2,Ala^5]uPAcyclin and [Ala^8]uPAcyclin. As shown in the histogram reported in Figure 7B, the uPAcyclin is indeed able to reduce vessel formation by 50% at 1 nM and by 80% at 100 nM. […] It is of note that, unlike [Ala^2,Ala^5]uPAcyclin or [Ala^8]uPAcyclin, [Ala^1]uPAcyclin is ineffective, even if employed at 100 nM.
Figure 7 Inhibition of vasculogenic mimicry by U251-MG glioblastoma cells. (A) Representative images of U251-MG cells cultured in DMEM/10% FBS (no matrix) or seeded onto Geltrex^TM in multiwell-96 (1.5 × 10^4 cells/well). When specified, cells were pretreated with diluents (untreated) or with the indicated peptides at the indicated concentrations for 40 min at 37 °C prior to the VM assay. All images are taken after 24 h with the DMI Leica 6000 Inverted Microscope with 50× total magnification; scale bar: 100 μm. (B) The quantitation and expression of branching points (red arrows), is accomplished as reported in the legend of Figure 6 (*** p-value < 0.001).

U87-MG cells [3] = conditions: 24 h; for reduction of vessel formation (VM, branching points): U87-MG on Geltrex
Protocol: as §6, §7
Figure 6 Inhibition of vasculogenic mimicry by U87-MG glioblastoma cells. (A) Representative images of U87-MG cells cultured in DMEM/10% FBS (no matrix) or seeded onto Geltrex^TM in multiwell-96 (3 × 10^4 cells/well). When specified, cells were pre-treated with diluents (untreated) or with the indicated peptides at the indicated concentrations for 40 min at 37 °C prior to the VM assay. All images are taken after 24 h with the DMI Leica 6000 Inverted Microscope and 50× total magnification; scale bar: 100 μm. (B) The quantitation of branching points, defined as the intersection of at least three tubes (red arrows), was performed at 24 h either in control cells and cells exposed to the peptides and reported in the histogram (** p-value < 0.005; *** p-value < 0.001).

U251-MG cells [4] = experiment: Cell viability / proliferation, Trypan blue exclusion, U251-MG; conditions: DMEM/10% FBS, 100 nM peptide, 24, 48 and 72 h
Protocol: as §1, §2, §3, §4, §5

| IC50 (U87-MG cells [3]) [nM] | Compound | growth rate / proliferation rate (U87-MG cells [1]) | inhibition of VM compared to uPAcyclin (in words) (U251-MG cells [2]) | reduction of vessel formation (VM, branching points) (U87-MG cells [3]; 1 nM peptide) [%] | reduction of vessel formation (VM, branching points) (U87-MG cells [3]; 100 nM peptide) [%] | growth rate / proliferation rate (U251-MG cells [4]) | reduction of vessel formation (VM, branching points) (U251-MG cells [2]; 1 nM peptide) [%] | reduction of vessel formation (VM, branching points) (U251-MG cells [2]; 100 nM peptide) [%] |
| --- | --- | --- | --- | --- | --- | --- | --- | --- |
| < 1 | CC(=O)N[C@@H](CCCCN)C(=O)N[C@@H](C)C(=O)N[C@H]1CCC(=O)NCCCC[C@@H](C(N)=O)NC(=O)[C@H](CC(C)C)NC(=O)[C@H](CCC(=O)O)NC(=O)[C@H](CCC(=O)O)NC(=O)[C@@H]2CCCN2C(=O)[C@H](C)NC(=O)[C@H](CO)NC1=O [[Ala^2,Ala^5]uPAcyclin] (Ac-KAESAPEELK-NH2; lactam 3-10) | slight but not significant decrease | slightly more effective inhibitors | 50 | 70 | slight but not significant decrease | – | – |
| < 1 | CC(=O)N[C@@H](CCCCN)C(=O)N1CCC[C@H]1C(=O)N[C@H]1CCC(=O)NCCCC[C@@H](C(N)=O)NC(=O)[C@H](CC(C)C)NC(=O)[C@H](C)NC(=O)[C@H](CCC(=O)O)NC(=O)[C@@H]2CCCN2C(=O)[C@@H]2CCCN2C(=O)[C@H](CO)NC1=O [[Ala^8]uPAcyclin] (Ac-KPESPPEALK-NH2; lactam 3-10) | similar | slightly more effective inhibitors | 50 | 70 | similar | – | – |
| – | CC(=O)N[C@@H](CCCCN)C(=O)N1CCC[C@H]1C(=O)N[C@H]1CCC(=O)NCCCC[C@@H](C(N)=O)NC(=O)[C@H](CC(C)C)NC(=O)[C@H](CCC(=O)O)NC(=O)[C@H](CCC(=O)O)NC(=O)[C@@H]2CCCN2C(=O)[C@@H]2CCCN2C(=O)[C@H](CO)NC1=O [uPAcyclin] (Ac-KPESPPEELK-NH2; lactam 3-10) | similar | – | 40 | 70 | similar | 50 | 80 |
